How the values were obtained:
AZT-resistant strains = assay: Infection of PBMCs by AZT-resistant HIV-1; format: cell-based; conditions: 10 μM, RT activity after 10 days
Description: (§1) PBMCs were infected under the conditions described above in the general procedures, with various HIV-1 isolates derived from patients, or identified as resistant to AZT. The anti-viral effect of DABF-AmB was determined by measuring the RT activity in the supernatants after 10 days of culture.

HIV LAV/BRU = assay: Protection of CD4 cells in cultures of HIV-infected human thymocytes; format: cell-based, HIV-1
Description: Human thymuses were obtained during corrective heart surgery operations on 3 to 7 year old children. The tissues were cut into fragments and the red blood cells were removed by treating with […] buffer. After washing in PBS buffer, cellular suspensions were prepared in an RPMI 1640 medium containing 10% of human serum type […]. Dead cells were removed by passing over a sterile nylon wool column.
The cells were infected with HIV LAV/BRU as indicated above in the general procedures, and then re-inoculated in the presence of PHA, of anti-CD2 or anti-CD3 antibodies and of IL2 and cultured for 10 days at a rate of 1×10^7 cells/ml. After 10 days, viral production was evaluated by measuring the RT activity in the supernatants and the distribution of CD4/CD8 was evaluated by double fluorescence flow cytometry by means of FITC-labelled anti-CD4 antibodies (OKT4) and phycoerythrin-labelled anti-CD8 antibodies (OKT8). DABF-AmB was added to the cultures immediately after infection and maintained during the entire duration of the culture.

SIVmac251 = assay: Formation of syncytia in HUT78 cells infected with SIVmac251; format: cell-based, SIV
Description: HUT78 cells were inoculated in 96-well plates in an amount of 2×10^4 cells per well, in […]. They were infected with various viral concentrations and DABF-AmB was added immediately after the infection, at various concentrations. The formation of syncytia was evaluated after 3 and 5 days by direct reading under an inverted microscope (semi-quantitative test).

viral antigen p24 = assay: Secretion of p24 in HIV-1 infected PBMCs; format: cell-based; conditions: Human immunodeficiency virus 1, PBMC, read-out: inhibition of synthesis of p24
Description: The T cells (Jurkat and CEM) used are very permissive to HIV infection. They are cultured in RPMI 1640 medium supplemented with 10% foetal calf serum, 2 mM of glutamine and a mixture of penicillin and streptomycin. The peripheral blood mononuclear cells are obtained from blood from healthy donors, isolated on a Ficoll Hypaque gradient and stimulated with 10 μg/ml of phytohaemagglutinin A (PHA), for two days, in RPMI 1640 medium supplemented, prior to the infection by HIV, with amikacin and vancomycin (10 mg/ml), polybrene (1 mg/ml) and anti-interferon gamma serum (5 U/ml). After infection, the PBMCs are cultured (10^5 per well) in flat-bottomed 96-well plates in the same RPMI 1640 medium (200 μl per well).
The PBMCs cells (2×10^6 /ml) are infected with the same viruses and under the same conditions as the Jurkat or CEM cells. […]
The viral antigen p24 was quantified in the infected-cell supernatant by radioimmunological assay using the procedure recommended by the manufacturer (ABBOTT, Diagnostics Division).
PBMCs isolated from healthy individuals are infected with HIV-1. The production of antigen p24 as well as the reverse transcriptase activity can be detected in the supernatants of cultures infected 3 days after the infection. […]
The effect of DABF-AmB on the reverse transcriptase activity and on the secretion of p24 is evaluated on the 6th day.

[1] = test system: HIV-1 isolates derived from patients; assay: Infection of PBMCs by HIV-1 isolates derived from patients; format: cell-based; conditions: 10 μM, 10 viral strains derived from patients, RT activity after 10 days
Description: as §1

LTR of HIV = assay: Early phases of HIV infection: transactivation of LTR-LacZ in CD4 HeLa cells (blue colonies); format: cell-based, HIV-1; conditions: 10 μM, 24 hours after infection
Description: HeLa cells transfected with the CD4 gene and capable of being infected by HIV, carrying the bacterial gene LacZ placed under the control of the LTR of HIV ROCANCOURT et al., J. Virol., 64:2660-2668, (1990)!, were infected with HIV-1BRU. […] This detection was carried out after fixing the cells by incubating for one hour in-the presence of 5-bromo-4-chloro-3-indoyl-β-D-[…] and enzyme substrate.

Structure (SMILES): C[C@@H]1[C@H](O)[C@@H](C)/C=C/C=C/C=C/C=C/C=C/C=C/C=C/[C@H](O[C@@H]2O[C@H](C)[C@@H](O)[C@H](NCC(=O)[C@@H](O)[C@@H]3OC(c4ccccc4)OC[C@H]3O)[C@@H]2O)C[C@@H]2O[C@](O)(C[C@@H](O)C[C@@H](O)[C@H](O)CC[C@@H](O)C[C@@H](O)CC(=O)O[C@H]1C)C[C@H](O)[C@H]2C(=O)O (stereo partly drawn) [DABF-AmB, 1-deoxy-1-amino-4,6-O-benzylidene-D-fructosyl-AmB]
- inhibition of infection of PBMC (AZT-resistant strains): this inhibition is also produced in the case of AZT-resistant strains
- RT activity in the supernatants of infected thymocytes (HIV LAV/BRU; 10 days): decrease in RT activity
- CD4+ cells in infected thymocyte cultures (HIV LAV/BRU; in proportion to the concentration): preservation or the reappearance of CD4+ cells
- infection of CD4+ thymocytes and distribution of subpopulations of thymic cells (HIV LAV/BRU; infected cultures): inhibits the infection of CD4+ thermocytes by HIV and restores a normal distribution of the subpopulations of thymic cells
- formation of syncytia (SIVmac251; 0.1 μM, 10 TCID50, 3 days): -
- formation of syncytia (SIVmac251; 0.1 μM, 10 TCID50, 5 days): +
- formation of syncytia (SIVmac251; 0.1 μM, 100 TCID50, 3 days): +
- formation of syncytia (SIVmac251; 0.5 μM, 10 TCID50, 3 days): -
- formation of syncytia (SIVmac251; 0.5 μM, 10 TCID50, 5 days): +
- formation of syncytia (SIVmac251; 0.5 μM, 100 TCID50, 3 days): +
- formation of syncytia (SIVmac251; 1 μM, 10 TCID50, 3 days): -
- formation of syncytia (SIVmac251; 1 μM, 10 TCID50, 5 days): +
- formation of syncytia (SIVmac251; 1 μM, 100 TCID50, 3 days): +
- formation of syncytia (SIVmac251; 5 μM, 10 TCID50, 3 days): -
- formation of syncytia (SIVmac251; 5 μM, 10 TCID50, 5 days): - and +
- formation of syncytia (SIVmac251; 5 μM, 100 TCID50, 3 days): - and +
- formation of syncytia (SIVmac251; 5 μM, 100 TCID50, 5 days): - and +
- formation of syncytia (SIVmac251; 5 μM, 500 TCID50, 3 days): - and +
- formation of syncytia (SIVmac251; 5 μM, 500 TCID50, 5 days): + and -
- formation of syncytia (SIVmac251; 10 μM, 10 TCID50, 3 days): -
- formation of syncytia (SIVmac251; 10 μM, 10 TCID50, 5 days): -
- formation of syncytia (SIVmac251; 10 μM, 100 TCID50, 3 days): -
- formation of syncytia (SIVmac251; 10 μM, 100 TCID50, 5 days): - and +
- formation of syncytia (SIVmac251; 10 μM, 500 TCID50, 3 days): -
- formation of syncytia (SIVmac251; 10 μM, 500 TCID50, 5 days): - and +
- formation of syncytia (SIVmac251; 50 μM, 10 TCID50, 3 days): -
- formation of syncytia (SIVmac251; 50 μM, 100 TCID50, 3 days): -
- formation of syncytia (SIVmac251; 50 μM, 100 TCID50, 5 days): -
- formation of syncytia (SIVmac251; 50 μM, 500 TCID50, 3 days): -
- formation of syncytia (SIVmac251; 50 μM, 500 TCID50, 5 days): -
- formation of syncytia (SIVmac251; 100 μM, 10 TCID50, 5 days): -
- formation of syncytia (SIVmac251; 100 μM, 100 TCID50, 3 days): -
- formation of syncytia (SIVmac251; 100 μM, 100 TCID50, 5 days): -
- formation of syncytia (SIVmac251; 100 μM, 500 TCID50, 3 days): -
- formation of syncytia (SIVmac251; 100 μM, 500 TCID50, 5 days): -
- inhibition of formation of syncytia (in words) (SIVmac251; HUT78, SIV): in a dose-dependent manner
- inhibition at 10 µM (viral antigen p24): 88 ± 6%
- inhibition of infection of PBMC [1]: substantially reducing, or even completely inhibiting
- inhibition of appearance of blue colonies (LTR of HIV): completely inhibits
